From patent US20040077601A1, “Methods and compositions relating to isoleucine boroproline compounds” (Point Therapeutics, Inc., priority 2002, published 2004)

Key:
chemokine KC = assay: Serum levels of the chemokine KC by ELISA in mice after administration
WEHI 164 tumor cells = assay: WEHI 164 mouse tumor model (subcutaneous inoculation of 4×10^6 tumor cells); assay type: in vivo, mice; conditions: for Tumor sizes, subcutaneous compared to oral: day 20; for Tumor sizes (mean tumor volumes) on day 20 versus saline control: all 3 doses, twice daily day 2 to day 19, n=10; for Incidence of tumor rejection (%): recorded on day 20
Method: FIG. 2. Comparison of the anti-tumor activity of Ile-boroPro administered orally or by subcutaneous injection in the WEHI 164 mouse tumor model. Mice were inoculated subcutaneously with 4×10^6 tumor cells and administered Ile-boroPro twice daily from day 2 to day 19 after tumor inoculation, either by oral gavage (open bars) or subcutaneous injection (solid bars). Control mice received saline (hatched bar). The data represent mean tumor volumes±SEM (n=10) were recorded on day 20.
Mice were inoculated subcutaneously with 4×10^6 WEHI 164 tumor cells and administered 2-, 5- or 10-μg doses of Ile-boroPro twice daily from day 2 to […] after tumor inoculation, either by oral gavage or subcutaneous injection. Control mice received saline. […] The greater efficacy of subcutaneous administration was also reflected in the incidence of tumor rejection in mice receiving treatment with the various doses of Ile-boroPro (Table 2). […] It should be noted that tumor rejection was never observed in mice inoculated with WEHI 164 and treated with saline.

serum DPP-IV = serum DPP-IV (Mus musculus, UniProt P28843); assay: Serum DPP-IV activity in mice two hours after administration (indicator of bioavailability); assay type: in vivo; conditions: 0.2-, 2.0-, 20-, 200-μg doses, subcutaneous injection vs oral gavage, serum two hours later
Sequence of serum DPP-IV (P28843 37-760 limits assumed): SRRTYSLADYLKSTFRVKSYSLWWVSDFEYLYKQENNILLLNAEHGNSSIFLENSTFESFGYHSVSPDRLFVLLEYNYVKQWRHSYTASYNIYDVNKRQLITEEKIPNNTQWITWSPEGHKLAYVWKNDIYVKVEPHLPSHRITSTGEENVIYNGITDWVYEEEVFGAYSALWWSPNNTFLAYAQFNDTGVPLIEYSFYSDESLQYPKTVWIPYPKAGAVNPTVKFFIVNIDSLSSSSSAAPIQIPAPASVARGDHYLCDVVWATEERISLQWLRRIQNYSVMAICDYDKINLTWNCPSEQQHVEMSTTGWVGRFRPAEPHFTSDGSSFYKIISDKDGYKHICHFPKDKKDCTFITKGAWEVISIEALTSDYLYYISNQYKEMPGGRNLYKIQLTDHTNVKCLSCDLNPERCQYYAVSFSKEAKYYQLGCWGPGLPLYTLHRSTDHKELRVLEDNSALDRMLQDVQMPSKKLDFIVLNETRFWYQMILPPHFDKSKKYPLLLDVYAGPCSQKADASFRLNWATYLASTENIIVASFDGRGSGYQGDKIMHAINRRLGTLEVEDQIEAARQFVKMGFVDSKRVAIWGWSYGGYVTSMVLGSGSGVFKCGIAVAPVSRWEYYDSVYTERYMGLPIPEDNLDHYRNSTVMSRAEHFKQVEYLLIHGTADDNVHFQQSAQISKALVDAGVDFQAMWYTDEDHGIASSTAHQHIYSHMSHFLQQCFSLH

SMILES: CCC(C)C(N)C(=O)N1CCCC1B(O)O (stereo not shown) [Ile-boroPro]
- Time of maximal increases in serum KC levels after administration (chemokine KC): 2 h
- Suppression of tumor growth, subcutaneous versus oral administration (tumor volumes on day 20) (WEHI 164 tumor cells; 2-, 5- or 10-μg doses twice daily): more effective than oral administration in suppressing tumor growth
- Tumor sizes, subcutaneous compared to oral (WEHI 164 tumor cells; 2-μg dose twice daily, P<0.0005): significantly smaller
- Tumor sizes, subcutaneous compared to oral (WEHI 164 tumor cells; 5-μg dose twice daily, P<0.005): significantly smaller
- Tumor sizes (mean tumor volumes) on day 20 versus saline control (WEHI 164 tumor cells; oral gavage, P<0.05): significant reduction in tumor sizes
- Incidence of tumor rejection (%) (WEHI 164 tumor cells; oral, 10 μg twice daily day 2 to day 19, 2 separate experiments): caused tumor rejection
- Tumor sizes (mean tumor volumes) on day 20 versus saline control (WEHI 164 tumor cells; subcutaneous injection, P<0.00005): significant reduction in tumor sizes
- Incidence of tumor rejection (%) (WEHI 164 tumor cells; subcutaneous, 2 μg twice daily day 2 to day 19, one experiment): 60%
- Incidence of tumor rejection (%) (WEHI 164 tumor cells; subcutaneous, 5 μg twice daily day 2 to day 19, one experiment): 70%
- Bioavailability judged from dose response of inhibition of serum DPP-IV, subcutaneous versus oral (serum DPP-IV): more bioavailable
